# In patent publication US4999374A, “Veterinary treatment” (priority 1987, dated 1991):
# Like-named read-outs stand apart in the source and are kept apart here.
# Key:
# T. hyodysenteriae [1] = assay: MIC of M139603 against thirteen T. hyodysenteriae isolates vs salinomycin and dimetridazole (Example 1, Table 1); format: cell-based, Treponema hyodysenteriae; conditions: for MIC: Brachyspira hyodysenteriae
# Experimental: The minimum inhibitory concentration of M139603 was tested in parallel with dimetridazole (May & Baker) and the growth-promoting polyether antibiotic salinomycin (Hoechst) against thirteen strains of T. hyodysenteriae.
# T. hyodysenteriae [2] = assay: Comparative efficacy of M139603 and monensin in experimentally infected mice (Example 2, Table 2); format: in vivo, mice (strain MF-1); conditions: 25 ppm feed
# Text: The infection leads to varying degrees of caecitis, the lesions of which are apparent in animals killed on or about the sixth day post-infection. Caecal specimens examined by bacteriological culture techniques applicable for enumeration of organisms reveal the presence of high populations of T.hyodysenteriae. This disease-model was used in experiments to compare the efficacy of M139603 with that of salinomycin, lasalocid and monensin in suppressing the infection.
# In this study, the efficacy of M139603 was tested at 25 ppm feed and that of monensin (Eli Lilly) at 50 or 100 ppm. Groups of infected mice, five per group, were offered the drugs in the feed on five continuous days before killing. Caecal materials were subjected to bacteriological examination to enumerate the populations of viable treponemes per gram of material. […] The group mean in respect of the unmedicated groups was 7.9 cfu/g.
# T. hyodysenteriae (P18a) [3] = assay: Efficacy of M139603 in preventing swine dysentery in pigs, experimental infection (Example 5, Table 5); format: in vivo; conditions: 25 ppm feed
# Experimental: The efficacy of M139603 was tested at 25 ppm feed.
# (§1) In this studY two groups (Gp.1 and Gp.2) of pigs, six per group, were experimentally infected with a pathogenic strain of T. hyodysenteriae (P18a, IRAD(Institute for Animal Health), Compton, Berks, U.K.) by oro-gastric inoculation of 50 ml of a culture suspension (1×10^7cfu/ml) of the organism into each animal. From post-infection day (PID) to PID 35 the animals in Gp. 1 were offered ad lib a feed comprising "Kwikwean" meal (Rank, Hovis, McDougall Research Ltd; containing no antibiotics) incorporated with M139603 at 25 ppm. Gp.2 remained on unmedicated feed throughout the trial. Drug efficacy was measured primarily on the basis of the number of diarrhoea or dysentery days in relation to pig-days within a group and on the average daily weight gain per pig, in each group over the period of the trial. The daily gain was calculated by dividing group gain at end of trial (PID 35) by the total number of pig-days from PID 1 to PID 35. […] In the experiment the pigs were exposed to high infective doses of the organism a day before the introduction of the drug. Under normal circumstances preventive dose-regimes are applied on animals at risk and not on those already infected.
# [4] = tested on: T. hyodysenteriae (strain "P18a"); assay: Efficacy of M139603 in pigs, natural infection (Example 6, Table 6); format: in vivo; conditions: for Mortality (+ culls): 38 days, 6 pigs; for Number diarrhoea/dysentery days / Percent diarrhoea/dysentery days: pi 1 to 38; for Average weight at end: start 10.95 kg
# Experimental: as §1
# (§2) In this study, eighteen pigs were allocated to three equal groups (Gp.1-3). Feed incorporated with the drug at 25 or 15 ppm was offered to Gp.1 and 2, respectively, on thirty-eight consecutive days commencing six hours pre-infection. Gp.3 remained on unmedicated feed throughout the trial. The pigs were infected with T. hyodysenteriae (strain "P18a") using methods and materials similar to those applied in Example 5. However, seven days following this exposure (post-infection day 7), over a period of seven consecutive days, the pigs in Gp. 1 and 2 were allowed to co-mingle for about two hours each day with some dysenteric "seeder pigs" in a nearby pen. Drug efficacy, as in Example 6, was assessed primarily on the basis of the total number of diarrhoea/dysentery days per group and on the basis of average daily weight gain per pig per group. The results are indicative of the good efficacy of M139603 even at a level as low as 15 ppm feed in preventing swine dysentery. At this dose-level, the daily drug-intake is unlikely to be more than 0.9 mg/kg/body-weight, if daily feed is calculated at 6% of a pig's body-weight.
# T. hyodysenteriae (P18a) [5] = assay: Efficacy of M139603 in pigs at low doses (Example 7, Table 7); format: in vivo; parameters: Group weight / Ave. daily weight-gain: unit not given here; conditions: for Mortality (+ culls): 42 days, 6 pigs
# Experimental: as §1, §2
# In this experiment twenty-four pigs were split into four equal groups (Gp. 1-4). Gp. 1 and 2 were offered the drug at 15 or 10 ppm feed on forty-two consecutive days, commencing six hours pre-infection. Gp. 3 (infected) and Gp. 4 (uninfected) remained on unmedicated feed throughout. The infection procedures with T. hyodysenteriae (P18a) were similar to those applied above. Only three groups, Gp. 1, 2 and 3 were infected. Gp. 4 remained uninfected in a well-isolated pen throughout the trial period. Three days following the initial exposure to the infection (post-infection day 3), over a period of five continuous days, the pigs in Gp. 1, 2 and 3 were allowed to co-mingle with dysenteric "seeder pigs" housed in a separate pen. Drug efficacy was measured using the criteria applied in the Examples 5 and 6. […] Thereafter, the differences narrowed, primarily due to the placement of Gp. 3 on tiamulin to prevent further weight losses, and consequent deaths. Despite the number of diarrhoea days observed for Gp. 1 (6.8%) and Gp.
structure (smiles),measurement,setting,value
"CO[C@@H](C)[C@H]1C[C@H](C)[C@H]([C@@H](C)/C=C/[C@@H]2CC[C@@H](C)[C@H](/C(=C/[C@H]3CCC[C@@H](C)[C@@H]3[C@H](C)C(=O)C3=C(O)COC3=O)CO)O2)O1 [Analogue M139603, tetronasin]",MIC,"T. hyodysenteriae [1]; isolate B78, read-out: MIC",0.5 µg/mL
same,MIC,"T. hyodysenteriae [1]; isolate S82/6, read-out: MIC",0.2 µg/mL
same,MIC,"T. hyodysenteriae [1]; isolate S82/7, read-out: MIC",0.2 µg/mL
same,MIC,"T. hyodysenteriae [1]; isolate S83/1, read-out: MIC",< 0.1 µg/mL
same,MIC,"T. hyodysenteriae [1]; isolate S83/2, read-out: MIC",0.5 µg/mL
same,MIC,"T. hyodysenteriae [1]; isolate S83/5, read-out: MIC",< 0.1 µg/mL
same,MIC,"T. hyodysenteriae [1]; isolate S85/1, read-out: MIC",0.2 µg/mL
same,MIC,"T. hyodysenteriae [1]; isolate S85/2, read-out: MIC",0.2 µg/mL
same,MIC,"T. hyodysenteriae [1]; isolate S85/3, read-out: MIC",0.2 µg/mL
same,MIC,"T. hyodysenteriae [1]; isolate S85/8, read-out: MIC",0.2 µg/mL
same,MIC,"T. hyodysenteriae [1]; isolate S85/9, read-out: MIC",< 0.1 µg/mL
same,MIC,"T. hyodysenteriae [1]; isolate S86/1, read-out: MIC",< 0.1 µg/mL
same,MIC,"T. hyodysenteriae [1]; isolate S86/2, read-out: MIC",0.2 µg/mL
same,MIC,"T. hyodysenteriae [1]; mean of 13 strains (table), read-out: Mean MIC",0.215 µg/mL
same,MIC compared with salinomycin (statistical analysis),T. hyodysenteriae [1]; thirteen strains,significantly (p<0.001) lower MIC
same,Suppression of infection,T. hyodysenteriae [2],suppressed the infection
same,Mean (log10) viable treponemes per gram caecum & contents,"T. hyodysenteriae [2]; 5 days, group mean",0 log10 per gram
same,Viable treponemes per gram caecum & contents,"T. hyodysenteriae [2]; 5 days, individual mice, limit of detection <1.0 × 10^2",negative
same,Efficacy in preventing swine dysentery,T. hyodysenteriae (P18a) [3],preventing or minimising the incidence of swine dysentery
same,Mortality (+ culls),"T. hyodysenteriae (P18a) [3]; 35 days, 6 pigs",0
same,Average daily weight-gain,T. hyodysenteriae (P18a) [3]; PID 1-35,0.62 kg
same,Number diarrhoea/dysentery days,T. hyodysenteriae (P18a) [3]; PID 1-35,27 days
same,Percent diarrhoea/dysentery days,T. hyodysenteriae (P18a) [3]; PID 1-35,12.9%
same,Average weight at termination,T. hyodysenteriae (P18a) [3]; start 18.8,40.5
same,Group weight at termination,T. hyodysenteriae (P18a) [3]; start 112 kg,243 kg
same,Average daily weight-gain,[4]; 15 ppm feed,0.72 kg
same,Efficacy in preventing swine dysentery,[4]; 15 ppm feed,good efficacy
same,Mortality (+ culls),[4]; 15 ppm feed,0
same,Number diarrhoea/dysentery days,[4]; 15 ppm feed,0 days
same,Percent diarrhoea/dysentery days,[4]; 15 ppm feed,0%
same,Average weight at end,[4]; 15 ppm feed,41.0 kg
same,Group weight at end,"[4]; 15 ppm feed, start 65.5 kg",246.5 kg
same,Animals developing a transient dysentery,[4]; 25 ppm feed,one of the six animals
same,Average daily weight-gain,[4]; 25 ppm feed,0.72 kg
same,Mortality (+ culls),[4]; 25 ppm feed,0
same,Number diarrhoea/dysentery days,[4]; 25 ppm feed,14 days
same,Percent diarrhoea/dysentery days,[4]; 25 ppm feed,6.1%
same,Average weight at end,[4]; 25 ppm feed,41.0 kg
same,Group weight at end,"[4]; 25 ppm feed, start 65.7 kg",246.5 kg
same,Ave. daily weight-gain,"T. hyodysenteriae (P18a) [5]; 10 ppm feed group, post-infection day 44 to 57, inclusive (after withdrawal)",0.65
same,Mortality (+ culls),T. hyodysenteriae (P18a) [5]; 10 ppm feed,0
same,Ave. daily weight-gain,"T. hyodysenteriae (P18a) [5]; 10 ppm feed, day 4 pre-infection to day 22 post-infection",0.59
same,Percent diarrhoea/dysentery days,"T. hyodysenteriae (P18a) [5]; 10 ppm feed, post-infection day 1 to 21",4.8%
same,No. diarrhoea/dysentery days,"T. hyodysenteriae (P18a) [5]; 10 ppm feed, post-infection day 1 to 21 (126 pig-days)",6 days
same,Percent diarrhoea/dysentery days,"T. hyodysenteriae (P18a) [5]; 10 ppm feed, post-infection day 1 to 42",11.9%
same,No. diarrhoea/dysentery days,"T. hyodysenteriae (P18a) [5]; 10 ppm feed, post-infection day 1 to 42 (252 pig-days)",30 days
same,Group weight,"T. hyodysenteriae (P18a) [5]; 10 ppm feed, post-infection day 21, start 66.0",161.0
same,Ave. daily weight-gain,"T. hyodysenteriae (P18a) [5]; 10 ppm feed, post-infection day 23 to 43, inclusive",0.83
same,Group weight,"T. hyodysenteriae (P18a) [5]; 10 ppm feed, post-infection day 43 (1 day from withdrawal of medication)",265.0
same,"Average daily weight-gain vs uninfected, unmedicated group",T. hyodysenteriae (P18a) [5]; 15 or 10 ppm feed,"exceeded that recorded for pigs in the uninfected, unmedicated group"
same,"Weight gain vs unmedicated, infected group","T. hyodysenteriae (P18a) [5]; 15 or 10 ppm feed, by post-infection day 21",Significant weight gain differences
same,Ave. daily weight-gain,"T. hyodysenteriae (P18a) [5]; 15 ppm feed group, post-infection day 44 to 57, inclusive (after withdrawal)",0.86
same,Mortality (+ culls),T. hyodysenteriae (P18a) [5]; 15 ppm feed,0
same,Ave. daily weight-gain,"T. hyodysenteriae (P18a) [5]; 15 ppm feed, day 4 pre-infection to day 22 post-infection",0.56
same,Percent diarrhoea/dysentery days,"T. hyodysenteriae (P18a) [5]; 15 ppm feed, post-infection day 1 to 21",4%
same,No. diarrhoea/dysentery days,"T. hyodysenteriae (P18a) [5]; 15 ppm feed, post-infection day 1 to 21 (126 pig-days)",5 days
same,Percent diarrhoea/dysentery days,"T. hyodysenteriae (P18a) [5]; 15 ppm feed, post-infection day 1 to 42",6.8%
same,No. diarrhoea/dysentery days,"T. hyodysenteriae (P18a) [5]; 15 ppm feed, post-infection day 1 to 42 (252 pig-days)",17 days
same,Group weight,"T. hyodysenteriae (P18a) [5]; 15 ppm feed, post-infection day 21, start 63.7",153.7
same,Ave. daily weight-gain,"T. hyodysenteriae (P18a) [5]; 15 ppm feed, post-infection day 23 to 43, inclusive",0.81
same,Group weight,"T. hyodysenteriae (P18a) [5]; 15 ppm feed, post-infection day 43 (1 day from withdrawal of medication)",225.5
same,Group weight,"T. hyodysenteriae (P18a) [5]; 15 ppm feed, post-infection day 57 (15 days from withdrawal of medication)",327.5
same,Feed level found to be effective (lowest),T. hyodysenteriae (P18a) [5]; in the feed,10 ppm
